Values of other authors in patent US20190156929A1, “METHODS OF IMPROVING PATIENT COMPLIANCE TO TREAT CONTRAST-INDUCED INJURY” (Saghmos Therapeutics, Inc., priority 2017, published 2019).

System: contrast-induced nephropathy in patients undergoing coronary angiography/angioplasty
Settings: four published Phase 2 trials; compared with isotonic saline; patients e.g. with high serum creatinine levels

COc1ccc(CN2CCNCC2)c(OC)c1OC [Trimetazidine]
reduction of the risk of contrast-induced nephropathy (CIN): more effective than isotonic saline in reducing the risk of contrast-induced nephropathy (CIN)
